Laboratory results published in publication PMC12298827, “Subchronic Toxicities of Four Per- and Polyfluoroalkyl Substances (PFASs) by Oral Exposure in Sprague–Dawley Rats” (Toxics, 2025).

System: male and female Sprague–Dawley rats
Experiment: 90-day subchronic oral gavage toxicity study
Assay type: in vivo, rat
Parameters: key to NOEL, absolute liver weight increase / LOEL, absolute liver weight increase / NOEL, relative kidney weight increase / LOEL, relative kidney weight increase / NOEL, absolute kidney weight increase / LOEL, absolute kidney weight increase / NOEL, relative liver weight increase / LOEL, relative liver weight increase: NR: no response, no statistically significant dose-dependent changes
Description: Subchronic (90-day) studies were performed in accordance with current U.S. EPA’s Toxic Substances Control Act Good Laboratory Practice (GLP) Standards, with the following two general exceptions to the GLP guidelines: Analysis of the dose formulations was conducted according to RTI-approved Standard Operating Procedures, and corn oil (the vehicle) was not characterized (certificate of analysis from the vendor is available in the appendices to the final reports). Male and female Sprague–Dawley rats (five dose levels plus a control, n = 10/sex/dose group, corn oil vehicle dose volume of 3 mL/kg; oral gavage) were used in these studies, and the rats were euthanized on SD 91. The dose levels for PFHI were 0, 12.5, 25, 50, 100, and 200 mg/kg-day. The dose levels for MHFPK were 0, 18.8, 37.5, 75, 150, and 300 mg/kg-day. The dose levels for PFNAC were 0, 0.1, 0.3, 1.0, 3.0, and 10 mg/kg-day for male rats and 0, 0.3, 1.0, 3.0, 10, and 30 mg/kg-day for female rats. For CTFPA, the dose levels were 0, 1.9, 3.8. 7.5, 15, and 30 mg/kg-day for male rats and 0, 6.3, 12.5, 25, 50, and 100 mg/kg-day for female rats. For each PFAS, three batches of dosing solution were prepared. The time between the batch preparation of the dosing solutions ranged between 29 and 39 days. Blood samples were collected from all the rats at termination for serum chemistry, hematology, coagulation, and the analysis of the parent PFAS chemical in the plasma. In vivo data collection and further detail on the endpoints examined postmortem are described below.
The rats were observed twice daily for morbidity and mortality throughout the study period. At least once prior to randomization to test groups and weekly thereafter, the rats were physically examined, and bodyweights were obtained. Feed consumption was quantified weekly starting on SD 1.
Neurotoxicity was evaluated using the functional observational battery (FOB) and measuring locomotor activity (LMA) 2–4 h post dosing on SDs 78–80 and 80–84, respectively. For both the 14- and 90-day studies, an ophthalmologic examination was conducted prior to randomization and near the end of the study, using indirect ophthalmoscopy and slit–lamp biomicroscopy (as needed) after the administration of a mydriatic solution.
Hematology, biochemistry, and coagulation endpoints were measured at the termination of the study. A Siemens Advia 2120i hematology analyzer (Siemens Healthineers, Erlangen, Germany) was used to measure (or calculate) the parameters related to the complete blood count, leukocyte differential count, and reticulocyte count. The hematology parameters are listed and described in Table 2. The prothrombin time […] and activated partial thromboplastin time (APTT) were measured using an Instrumentation Laboratory (Bedford, MA, USA) ACL Elite Pro coagulation analyzer (laser–nephelometric centrifugal method).
At necropsy, the rats were visually examined for external abnormalities and organ weights (absolute and relative to the BW and brain weight), which were recorded (paired organs weighed together). The tissues were preserved in 10% neutral buffered formalin (NBF), except for the ocular tissues, testes, and epididymides, which were preserved in modified Davidson’s fixative and later transferred to 10% NBF. Bone marrow smears were prepared from the femurs, and the slides were air-dried, fixed in methanol, stained, and stored at room temperature for possible future evaluation. The preserved tissues were embedded in paraffin, sectioned, stained with hematoxylin and eosin, and examined by a board-certified veterinary pathologist.
Statistical analysis was performed using Provantis™ Version 10 or greater (Instem LSS, Limited; Stone, Staffordshire, UK). Differences among the treatment groups compared to the control were evaluated using one-way analysis of variance (ANOVA) if the underlying assumptions of a normal distribution (Shapiro–Wilk test) and the homogeneity of the variance (Levene’s test) were satisfied. […]

## O=C(O)C(F)(Cl)C(F)(F)F (centres unmarked) [CTFPA, 2-Chloro-2,3,3,3-tetrafluoropropanoic acid]
female, 100 mg/kg-day
  Liver Weight: 11.31 g
  Liver/Body Weight: 3.57%
  Liver/Brain Weight: 575%
  MPV: 8.01 ± 0.50 fL
  PT: 14.22 s
  Total BW change: 107.34 g
  Total Food Consumed: 1615 g
male
  BMDL, absolute liver weight increase: 11.6 mg/kg-day
  LOEL, absolute kidney weight increase: NR
  LOEL, absolute liver weight increase: 7.5 mg/kg-day
  LOEL, relative kidney weight increase: NR
  LOEL, relative liver weight increase: 3.8 mg/kg-day
  NOEL, absolute kidney weight increase: NR
  NOEL, absolute liver weight increase: 3.8 mg/kg-day
  NOEL, relative kidney weight increase: NR
  NOEL, relative liver weight increase: 1.9 mg/kg-day
male, 1.9 mg/kg-day
  % BW Gain: 125.06%
  % Diff, % BW Gain: -0.26%
  % Diff, Total BW change: -0.03%
  % Diff, Total Food Consumed: 0.81%
  A/G: 0.95±0.07 ratio
  ALB: 3.35 ± 0.17 g/dL
  ALPi: 139.8±40.4 U/L
  APTT: 18.83 s
  BUN: 14.8 ± 1.8 mg/dL
  CHOL: 84.4 ± 9.8 mg/dL
  GLOB: 3.52 ± 0.20 g/dL
  GLUC: 170.1 ± 32.6 mg/dL
  HCT: 50.28±1.93%
  HGB: 15.58 ± 0.65 g/dL
  Kidney Weight: 3.12 g
  Kidney/Body Weight: 0.56%
  Kidney/Brain Weight: 150%
  Liver Weight: 14.47 g
  Liver/Body Weight: 2.58%
  Liver/Brain Weight: 697%
  MPV: 7.50 ± 0.37 fL
  PT: 15.55 s
  Total BW change: 316.63 g
  Total Food Consumed: 2084 g
male, 3.8 mg/kg-day
  % BW Gain: 137.76%
  % Diff, % BW Gain: 9.87%
  % Diff, Total BW change: 11.95%
  % Diff, Total Food Consumed: 9.08%
  A/G: 0.93±0.20 ratio
  ALB: 3.29 ± 0.48 g/dL
  ALPi: 131.8±40.1 U/L
  APTT: 16.21 s
  BUN: 15.6 ± 2.5 mg/dL
  CHOL: 79.3 ± 17.3 mg/dL
  GLOB: 3.65 ± 0.66 g/dL
  GLUC: 173.7 ± 32.5 mg/dL
  HCT: 49.12±2.10%
  HGB: 15.20 ± 0.71 g/dL
  Kidney Weight: 3.35 g
  Kidney/Body Weight: 0.56%
  Kidney/Brain Weight: 152%
  Liver Weight: 17.18 g
  Liver/Body Weight: 2.85%
  Liver/Brain Weight: 780%
  MPV: 7.79 ± 0.46 fL
  PT: 15.25 s
  Total BW change: 354.57 g
  Total Food Consumed: 2255 g
male, 7.5 mg/kg-day
  % BW Gain: 145.16%
  % Diff, % BW Gain: 15.76%
  % Diff, Total BW change: 18.72%
  % Diff, Total Food Consumed: 13.5%
  A/G: 1.05±0.14 ratio
  ALB: 3.39 ± 0.32 g/dL
  ALPi: 159.9±63.1 U/L
  APTT: 14.52 s
  BUN: 15.5 ± 2.2 mg/dL
  CHOL: 74.2 ± 8.5 mg/dL
  GLOB: 3.24 ± 0.19 g/dL
  GLUC: 165.6 ± 25.1 mg/dL
  HCT: 47.49±2.30%
  HGB: 14.52 ± 0.72 g/dL
  Kidney Weight: 3.47 g
  Kidney/Body Weight: 0.56%
  Kidney/Brain Weight: 159%
  Liver Weight: 20.01 g
  Liver/Body Weight: 3.24%
  Liver/Brain Weight: 912%
  MPV: 7.61 ± 0.38 fL
  PT: 15.14 s
  Total BW change: 376.00 g
  Total Food Consumed: 2345 g
male, 15 mg/kg-day
  % BW Gain: 135.14%
  % Diff, % BW Gain: 7.78%
  % Diff, Total BW change: 8.09%
  % Diff, Total Food Consumed: 14.6%
  A/G: 1.16±0.11 ratio
  ALB: 3.56 ± 0.21 g/dL
  ALPi: 237.6±66.2 U/L
  APTT: 12.89 s
  BUN: 15.8 ± 2.4 mg/dL
  CHOL: 63.6 ± 10.8 mg/dL
  GLOB: 3.07 ± 0.19 g/dL
  GLUC: 175.2 ± 15.8 mg/dL
  HCT: 47.72±2.58%
  HGB: 14.62 ± 0.84 g/dL
  Kidney Weight: 3.40 g
  Kidney/Body Weight: 0.58%
  Kidney/Brain Weight: 147%
  Liver Weight: 20.28 g
  Liver/Body Weight: 3.47%
  Liver/Brain Weight: 873%
  MPV: 7.56 ± 0.43 fL
  PT: 15.24 s
  Total BW change: 342.33 g
  Total Food Consumed: 2368 g
male, 30 mg/kg-day
  % BW Gain: 121.40%
  % Diff, % BW Gain: -3.18%
  % Diff, Total BW change: -0.72%
  % Diff, Total Food Consumed: 10.33%
  A/G: 1.19±0.12 ratio
  ALB: 3.72 ± 0.22 g/dL
  ALPi: 282.9±80.3 U/L
  APTT: 12.13 s
  Absolute and relative thymus weights: significantly increased
  BUN: 18.7 ± 2.7 mg/dL
  CHOL: 68.5 ± 10.0 mg/dL
  GLOB: 3.14 ± 0.22 g/dL
  GLUC: 175.3 ± 23.2 mg/dL
  HCT: 47.32±2.15%
  HGB: 14.44 ± 0.69 g/dL
  Kidney Weight: 3.35 g
  Kidney/Body Weight: 0.60%
  Kidney/Brain Weight: 148%
  Liver Weight: 21.52 g
  Liver/Body Weight: 3.82%
  Liver/Brain Weight: 954%
  MPV: 7.54 ± 0.47 fL
  PT: 15.74 s
  Total BW change: 314.42 g
  Total Food Consumed: 2281 g
